Measured values: a compilation of properties of binary mixtures (doi:10.1016/j.fluid.2015.01.011)

Test: xn = mol fraction of the nth substance listed
Conditions: 100 kPa

CC[n+]1ccn(C)c1.N#C[S-] + [N-]=C=S.[NH4+]
x2 = 0
Conditions | electrical conductivity [S/m] | viscosity [mPa·s]
298.15 K | 2.32 | 23.1
303.15 K | 2.67 | 19.68
308.15 K | 3.06 | 16.97
313.15 K | 3.47 | 14.54
318.15 K | 3.92 | 12.98
328.15 K | – | 10.25
333.15 K | – | 9.02
338.15 K | – | 8.3
343.15 K | – | 7.53

CC[n+]1ccn(C)c1.N#C[S-] + CC[n+]1ccn(C)c1.N#C[N-]C#N
x1 = 1
Conditions | electrical conductivity [S/m] | viscosity [mPa·s]
298.15 K | 2.32 | 23.1
303.15 K | 2.67 | 19.68
308.15 K | 3.06 | 16.97
313.15 K | 3.47 | 14.54
323.15 K | 4.38 | 11.49
333.15 K | – | 9.02
348.15 K | – | 6.87
353.15 K | – | 6.17

[N-]=C=S.[NH4+] + CC[n+]1ccn(C)c1.N#C[S-]
Conditions | electrical conductivity, x1 = 0.039 [S/m] | electrical conductivity, x1 = 0.099 [S/m] | electrical conductivity, x1 = 0.1395 [S/m] | viscosity, x1 = 0.039 [mPa·s] | viscosity, x1 = 0.099 [mPa·s] | viscosity, x1 = 0.1395 [mPa·s]
298.15 K | 2.07 | 2.05 | 1.86 | 25.9 | 29.9 | 31.6
303.15 K | 2.38 | 2.37 | 2.17 | 22 | 25.2 | 26.5
308.15 K | 2.72 | 2.72 | 2.5 | 18.84 | 21.4 | 22.5
313.15 K | – | 3.11 | 2.88 | – | 18.21 | 19.1
318.15 K | – | 3.52 | – | – | 16 | –
323.15 K | 3.97 | 3.98 | – | 12.59 | 14.03 | –
328.15 K | – | – | – | – | 12.4 | 12.88
333.15 K | – | – | – | 9.85 | – | 11.33
338.15 K | – | – | – | 9.01 | 9.9 | 10.24
343.15 K | – | – | – | 8.16 | 8.91 | –
348.15 K | – | – | – | 7.42 | – | 8.32
353.15 K | – | – | – | 6.68 | – | –

CCOS(=O)(=O)[O-].CC[n+]1ccn(C)c1 + CC[n+]1ccn(C)c1.N#C[S-]
x2 = 0
Conditions | electrical conductivity [S/m] | viscosity [mPa·s]
298.15 K | 0.308 | 96.9
303.15 K | 0.382 | 76.5
308.15 K | 0.469 | 61.6
313.15 K | 0.57 | –
318.15 K | 0.678 | –
323.15 K | 0.871 | 35
328.15 K | – | 29.7
333.15 K | – | 25.6
338.15 K | – | 22.04
343.15 K | – | 19.23
348.15 K | – | 16.89

CC[n+]1ccn(C)c1.N#C[N-]C#N + CC[n+]1ccn(C)c1.N#C[S-]
Conditions | electrical conductivity, x2 = 0 [S/m] | electrical conductivity, x2 = 0.2585 [S/m] | electrical conductivity, x2 = 0.5112 [S/m] | electrical conductivity, x2 = 0.7603 [S/m] | viscosity, x2 = 0 [mPa·s] | viscosity, x2 = 0.2585 [mPa·s] | viscosity, x2 = 0.5112 [mPa·s] | viscosity, x2 = 0.7603 [mPa·s]
298.15 K | 2.84 | – | 2.51 | 2.41 | 14.78 | – | 18.27 | 20.62
303.15 K | 3.22 | 3.05 | 2.89 | 2.76 | 12.87 | 14.18 | 15.74 | 17.66
308.15 K | 3.63 | – | 3.27 | 3.14 | 11.3 | – | 13.7 | 15.3
313.15 K | 4.06 | 3.87 | 3.67 | 3.56 | 9.76 | 10.72 | 11.78 | 13.12
318.15 K | – | 4.33 | 4.14 | – | – | 9.75 | 10.66 | –
323.15 K | 5.02 | 4.81 | – | 4.48 | 8.01 | 8.73 | – | 10.47
328.15 K | – | – | – | – | 7.24 | – | 8.54 | 9.37
333.15 K | – | – | – | – | – | 6.92 | 7.51 | 8.25
338.15 K | – | – | – | – | 6 | – | 7.01 | 7.64
343.15 K | – | – | – | – | 5.51 | 5.94 | 6.4 | 6.95
348.15 K | – | – | – | – | 5.06 | 5.47 | – | 6.36
353.15 K | – | – | – | – | 4.52 | 4.89 | 5.25 | –
